From publication PMC3633906, “A High Throughput Screen for RGS Proteins Using Steady State Monitoring of Free Phosphate Formation” (PLoS ONE, 2013)
Structures can show the parent of a compound that is named as a salt. Where two headings read alike, the source gives them in different places.

Tests used:
[1] = biological target: T1, RGS4(WT) (Rattus norvegicus, UniProt P49799); assay: Malachite green steady-state GAP assay, RGS4(WT); assay type: biochemical; details: for Mean absorbance at 642 nm, positive control: 10 µM final compound
T1 construct: fused to the N-terminus of an RGS4 construct containing amino acids 51–205; 10× His tag (N, cleaved yes); made in house; host or cells: E. coli BL21-DE3
T1 sequence (P49799 51-205): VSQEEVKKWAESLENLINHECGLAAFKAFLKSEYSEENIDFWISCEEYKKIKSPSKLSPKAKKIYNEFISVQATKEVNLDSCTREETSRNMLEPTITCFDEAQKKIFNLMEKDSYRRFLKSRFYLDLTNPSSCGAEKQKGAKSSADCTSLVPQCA
Description: Stock solutions of each of the 3 components of the developing solution were prepared, which are stable for long-term storage. Malachite solution was prepared by first diluting concentrated sulfuric acid 1∶5 in distilled water. Once the solution cooled to 25°C, malachite solution was prepared by dissolving 0.44 g of malachite green oxalate (Alfa Aesar; Ward Hill, MA) in 360 mL diluted acid and stored at 25°C. Molybdate solution, containing 7.5% ammonium molybdate tetrahydrate (Alfa Aesar; Ward Hill, MA), was prepared in distilled water and stored at 4°C. Tween-20 solution, used to maintain solubility of the phosphate-molybdate-malachite complex, was prepared as 11% (v/v) Tween-20 in distilled water. On the day of use, 2.5 mL molybdate solution and 0.2 mL Tween-20 solution were added to 10 mL of malachite solution and mixed quickly to avoid precipitation of malachite. The final ratio of the Developing Solution (DS) was 50∶12.5∶1 (malachite:molybdate:Tween-20). The peak absorbance was determined by a 2 nm step wavelength scan, using 10 µM Na3PO4 at pH 7.5 as the negative control.
The malachite green assay involves 5 components, with a 1 min spin at 100×g between each addition. For time-course experiments, the first component was 10 µL Malachite Green Assay Buffer (MGB; 50 mM HEPES at pH 7.5, 100 mM NaCl, 5 mM EDTA, 10 mM MgCl2, 0.01% lubrol) into a clear 384-well plate (ThermoFisher Scientific; Waltham, MA) using a MultiDrop dispenser (PerkinElmer; Waltham, MA). The second component dispensed was 10 µL of a 4× stock of RGS4, typically 200 nM to 1.6 µM with the target final concentration of 50 nM to 400 nM, diluted in MGB. After a 30 min incubation, 10 µL of the third component, 4× stock of Gαi diluted in MGB, was dispensed (typically between 4 µM and 80 µM with a desired final concentration 1 µM to 20 µM). After a minimum of 5 min incubation, 10 µL of the fourth component, 4× GTP diluted in MGB, was added at 10 minute intervals from 1–110 minutes. The 0 min time point was excluded due to amount of time required to proceed from GTP addition to quenching with DS. 4× GTP concentrations varied between 0.2 mM and 2.4 mM, with a target final concentration of 50 µM to 600 µM. To terminate the reaction, 10 µL of DS was added to each well using a Microlab Star liquid handling robot (Hamilton Robotics; Reno, NV), to achieve a final ratio 4∶1 (sample:developing solution). Following the spin, the plate was incubated for 25 min before being read at 642 nm for absorbance using an EnVision plate reader (PerkinElmer; Waltham, MA). RGS8 was evaluated similarly to as described for RGS4, with 4× stock concentrations from 20 nM and 800 nM. For each time-course, corresponding GTP only wells were included to account for spontaneous hydrolysis of GTP over time.
(§1) Malachite green compound activity and Z-factor analysis conducted in 384-well plates utilized optimized parameters as discerned from the time-course experiments. 10 µL of 4× compound or MGB was dispensed into appropriate wells. For single point assay, 160 µM compound was used, and for dose-response assays a series of ½ log dilutions from 100 µM final to 316pM final was used. 10 µL of the optimized 4× RGS4 concentration, 0.8 µM in MGB, was dispensed into all wells. After a spin down at 100×g for 1 min, the assay plate was incubated at 25°C for 30 min. 10 µL of the optimized Gαi concentration, 20 µM in MGB, was dispensed to each well and incubated at 25°C for 5 min. 10 µL of the optimized 4× GTP, 600 µM in MGB, was then added to the samples. After spinning the samples down at 100×g for 1 min, the samples were incubated at 25°C for 75 min. The samples were then stamped with 10 µL of DS and incubated for 25 min before reading absorbance at 642 nm.
1536-well Z-factor analysis and compound library screen were accomplished largely as described for 384-well plates. Initial screen and Z-factor determination was performed in a final concentration of 5.5% dimethylsulfoxide. […]

[2] = biological target: RGS4(Δ7) mutant (Rattus norvegicus, UniProt P49799, C132A/C148A/C183A/C197A/C204A/C71A/C95A); assay: Malachite green steady-state GAP assay, cysteine-null RGS4(Δ7) counter screen; assay type: biochemical
Text: Rat RGS4, sharing 97% sequence identity with human RGS4, and the cysteine to alanine mutant were expressed as fusion proteins of maltose binding protein (MBP), a 10× His tag, and a TEV protease recognition site fused to the N-terminus of an RGS4 construct containing amino acids 51–205, in the vector pMALC2H10T in BL21-DE3 E. coli (Stratagene; Santa Clara, CA). The single cysteine-null Δ51-RGS4 construct was generated by site-directed mutagenesis as described previously. Expression and purification were performed as described previously. Purified protein was incubated with TEV protease at a molar ratio of 10∶1(fusion protein:TEV protease) overnight at 4°C. The cleaved Δ51-RGS4 was then isolated by purification over an ANX column (GE Healthcare; Fairfield, CT) in 50 mM HEPES at pH 6.8 and 50 mM NaCl. The flow through, containing the ∼99% Δ51-RGS4 as determined by SDS-PAGE gel, was then collected and concentrated using a YM-10 centrifugal concentrator (Millipore; Billerica, MA). The concentration of Δ51-RGS4 was calculated based on the absorbance at 280 nm utilizing a Take-3 plate (Biotek; Winnoski, VT) in a Synergy 2 plate reader (Biotek; Winnoski, VT).
as §1
Data was analyzed using Prism analysis software (Graphpad Software; La Jolla, CA). Initial malachite green assay optimization was accomplished by comparing the fit of both straight line and hyperbolic functions. The fit that mostly closely resembled the data was used to represent the data. IC50 values for each compound were determined by fitting the data to a sigmoidal curve, which was used to calculate the IC50 value.

[3] = parameters: method as in PMID 20700722, PMID 21088503; details: rodent models; cited from earlier work
[4] = malachite green assay, RGS4(Δ7) mutant, concentration-response, read-out: IC50 against RGS4(Δ7)

Chain of RGS4(Δ7) mutant (P49799 51-205 C71A/C95A/C132A/C148A/C183A/C197A/C204A limits assumed): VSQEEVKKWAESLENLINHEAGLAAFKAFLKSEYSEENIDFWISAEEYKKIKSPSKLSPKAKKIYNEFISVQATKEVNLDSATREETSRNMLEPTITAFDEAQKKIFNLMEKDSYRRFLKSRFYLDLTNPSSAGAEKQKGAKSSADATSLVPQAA

| SMILES | IC50 [2, 4] [µM] | IC50 [1] [µM] | IC50 [2] [µM] | Inhibition of RGS4 (in words) ([1]; malachite green assay) | Inhibition of RGS4(Δ7) (in words) ([2]; malachite green assay) | further results |
| --- | --- | --- | --- | --- | --- | --- |
| C[n+]1cc2c3c(ccc2c2ccc4cc5c(cc4c21)OCO5)OCO3 [UI-5, sanguinarium sulfate] | 454 |  |  |  |  | IC50 ([1]; malachite green assay, 200 nM RGS4, concentration-response, read-out: IC50 against RGS4(WT)): 126 µM |
| Cc1ccc(-n2sc(=O)n(Cc3ccc(F)cc3)c2=O)cc1 [CCG-50014, reference compound] |  |  |  |  |  | Mean absorbance at 642 nm, positive control ([1]; 384-well plate, 192 wells, negative control (buffer) mean 1.74): 0.92; Mean absorbance at 642 nm, positive control ([1]; 1536-well plate, 5.5% DMSO, 128 wells, negative control (buffer) mean 0.67): 0.30 |
| CC1=C(O)C(=O)C=C2C1=CC=C1[C@@]2(C)CC[C@@]2(C)[C@@H]3C[C@](C)(C(=O)O)CC[C@]3(C)CC[C@]12C [UI-1590, celastrol] |  | 0.724 | 88 |  |  | Toxicity in vivo [3]: minor toxicity |
| CC(=O)Oc1c2c(c(CC=C(C)C)c3c1C(=O)C1=C[C@@H]4CC5C(C)(C)OC(C/C=C(\C)C(=O)O)(C4=O)[C@@]15O3)OC(C)(CCC=C(C)C)C=C2 (some centres unmarked) [UI-2034, acetyl-isogambogic acid] | 181 |  |  | weak inhibitors | weak inhibitors |  |
| CC(C)=CCC[C@]1(C)C=Cc2c(O)c3c(c(CC=C(C)C)c2O1)O[C@]12C(=C[C@@H]4C[C@H]1C(C)(C)O[C@@]2(C/C=C(/C)C(=O)O)C4=O)C3=O [UI-1907, gambogic acid] |  | 16 | 51 | weak inhibitors | weak inhibitors |  |
